According to patent publication US8334294B2, “4,8-diphenyl-polyazanaphthalene derivatives” (Almirall, S.A., priority 2007, dated 2012):

These compounds were tested against T1, human p38alfa (SAPKa) enzyme (Homo sapiens, UniProt Q16539) (assay: p38 enzymatic activity inhibition assay (FRET, ATF2 substrate)). Conditions: 1 h pre-incubation; ATF2 0.62 μM, ATP 60 μM; 1 h at 25° C.; read-out: p38α IC50.
T1 construct: purchased University of Dundee
Type: biochemical
Protocol: Enzymatic activity assay was performed in 96-well microtiter plates (Corning, catalog number #3686) using a total volume of 50 μl of an assay buffer composed of 50 mM HEPES pH 7.5, 10 mM MgCl2, 1.75 mM Na3VO4.
Various concentrations of the test compound or vehicle controls were pre-incubated for one hour with 0.055 μg/ml of the human p38alfa (SAPKa) enzyme (obtained from University of Dundee). The reaction started by addition of biotinylated ATF2 substrate and ATP in concentrations around their Km values (final concentration 0.62 μM and 60 μM respectively) and took place for one hour at 25° C. Addition of the detection reagents, streptavidin-XL665 and anti-phosphoresidue antibody coupled to Europium cryptate, caused the juxtaposition of the cryptate and the XL665 fluorophore, resulting in fluorescence energy transfer (FRET). The FRET intensity depends on the amount of bounded cryptate antibody, which is proportional to the extent of substrate phosphorylation. FRET intensity was measured using Victor 2V spectrofluorometer. Data were analyzed by non-linear regression (Hill equation) to generate a dose-response curve. The calculated IC50 value is the concentration of the test compound that caused a 50% decrease in the maximal FRET intensity.

T1 sequence (Q16539 whole entry): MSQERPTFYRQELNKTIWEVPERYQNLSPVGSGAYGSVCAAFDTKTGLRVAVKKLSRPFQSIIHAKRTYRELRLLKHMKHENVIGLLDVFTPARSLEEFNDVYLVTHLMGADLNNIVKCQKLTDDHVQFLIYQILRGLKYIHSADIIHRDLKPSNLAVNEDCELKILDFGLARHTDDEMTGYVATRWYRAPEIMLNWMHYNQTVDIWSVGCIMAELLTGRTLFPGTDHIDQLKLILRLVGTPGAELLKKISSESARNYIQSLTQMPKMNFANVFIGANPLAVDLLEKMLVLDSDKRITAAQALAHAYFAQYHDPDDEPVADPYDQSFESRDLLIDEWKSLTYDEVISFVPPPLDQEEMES

Row | SMILES | IC50
1 | O=C(O)c1cc(-c2ccc(F)cc2F)c2cc[n+]([O-])c(-c3c(F)cccc3F)c2n1 [Example 2, 4-(2,4-Difluorophenyl)-8-(2,6-difluorophenyl)-1,7-naphthyridine-2-carboxylic acid 7-oxide] | 22 nM
2 | O=c1cc(-c2ccc(F)cc2Cl)c2cc[n+]([O-])c(-c3c(F)cccc3F)c2[nH]1 [Example 8, 4-(2-Chloro-4-fluorophenyl)-8-(2,6-difluorophenyl)-1,7-naphthyridin-2(1H)-one 7-oxide] | 6 nM
3 | CN(C)CCNc1cc(-c2ccc(F)cc2Cl)c2cc[n+]([O-])c(-c3c(F)cccc3F)c2n1 [Example 10, N′-[4-(2-Chloro-4-fluorophenyl)-8-(2,6-difluorophenyl)-7-oxido-1,7-naphthyridin-2-yl]-N,N-dimethylethane-1,2-diamine] | 14 nM
4 | O=c1cc(-c2ccc(F)cc2Cl)c2cc[n+]([O-])c(-c3c(Cl)cccc3Cl)c2[nH]1 [Example 12, 4-(2-Chloro-4-fluorophenyl)-8-(2,6-dichlorophenyl)-1,7-naphthyridin-2(1H)-one 7-oxide] | 3.3 nM
5 | O=c1cc(-c2ccccc2Cl)c2ccnc(-c3c(Cl)cccc3Cl)c2[nH]1 [Example 17, 4-(2-Chlorophenyl)-8-(2,6-dichlorophenyl)-1,7-naphthyridin-2(1H)-one] | 13 nM
6 | O=c1cc(-c2ccccc2Cl)c2cc[n+]([O-])c(-c3c(Cl)cccc3Cl)c2[nH]1 [Example 18, 4-(2-Chlorophenyl)-8-(2,6-dichlorophenyl)-1,7-naphthyridin-2(1H)-one 7-oxide] | 15 nM
7 | CNc1cc(-c2ccccc2Cl)c2cc[n+]([O-])c(-c3c(Cl)cccc3Cl)c2n1 [Example 19, 4-(2-Chlorophenyl)-8-(2,6-dichlorophenyl)-N-methyl-1,7-naphthyridin-2-amine 7-oxide] | 8 nM
8 | CN(C)c1cc(-c2ccccc2Cl)c2cc[n+]([O-])c(-c3c(Cl)cccc3Cl)c2n1 [Example 20, 4-(2-Chlorophenyl)-8-(2,6-dichlorophenyl)-N,N-dimethyl-1,7-naphthyridin-2-amine 7-oxide] | 12 nM
9 | CS(=O)(=O)Nc1cc(-c2ccccc2Cl)c2cc[n+]([O-])c(-c3c(Cl)cccc3Cl)c2n1 [Example 21, N-[4-(2-Chlorophenyl)-8-(2,6-dichlorophenyl)-7-oxido-1,7-naphthyridin-2-yl]methanesulfonamide] | 66 nM
10 | Nc1cc(-c2ccccc2Cl)c2cc[n+]([O-])c(-c3c(Cl)cccc3Cl)c2n1 [Example 22, 4-(2-Chlorophenyl)-8-(2,6-dichlorophenyl)-1,7-naphthyridin-2-amine 7-oxide] | 85 nM
11 | [O-][n+]1ccc2c(-c3ccc(F)cc3Cl)ncnc2c1-c1c(F)cccc1F [Example 26, 4-(2-Chloro-4-fluorophenyl)-8-(2,6-difluorophenyl)pyrido[3,4-d]pyrimidine 7-oxide] | 35 nM
12 | [O-][n+]1ccc2c(-c3ccc(F)cc3Cl)ncnc2c1-c1c(Cl)cccc1Cl [Example 30, 4-(2-Chloro-4-fluorophenyl)-8-(2,6-dichlorophenyl)pyrido[3,4-d]pyrimidine 7-oxide] | 28 nM
13 | Nc1nc(-c2ccc(F)cc2Cl)c2cc[n+]([O-])c(-c3c(Cl)cccc3Cl)c2n1 [Example 32, 4-(2-Chloro-4-fluorophenyl)-8-(2,6-dichlorophenyl)pyrido[3,4-d]pyrimidin-2-amine 7-oxide] | 34 nM
